This is an account of results in ChEMBL document CHEMBL1152676, “Combretastatin-like chalcones as inhibitors of microtubule polymerization. Part 1: synthesis and biological evaluation of antivascular activity” (Bioorg Med Chem, 2009).

For orientation: IC50 means the concentration at which inhibition is half-maximal.

The source made the active and inactive calls. No cut-off for these calls is given here.

Assay [1] relates to K562. The assay can be described thus: Antiproliferative activity against human K562 cells after 5 days by MTT assay. It counts as functional, cell-based.
Assay [2] deals with K562. The assay can be described thus: Cell cycle arrest in human K562 cells assessed as accumulation at G0/G1 phase at 20 nM after 24 hrs by propidium iodide staining-based flow cytometry. It counts as functional. In general terms: In flow cytometry, cells or beads pass a laser one at a time.
The subject of assay [3] is K562. The assay can be described thus: Cell cycle arrest in human K562 cells assessed as accumulation at S phase at 20 nM after 24 hrs by propidium iodide staining-based flow cytometry. It counts as functional.
Assay [4] concerns K562. The assay can be described thus: Cell cycle arrest in human K562 cells assessed as accumulation at G2/M phase at 20 nM after 24 hrs by propidium iodide staining-based flow cytometry. It counts as functional.
Assay [5] in a line: Inhibition of tubulin assembly by Woods method.
A short description of assay [6]: Displacement of [3H]colchicine from tubulin assessed as bound colchicine at […] incubated in dark for 2 hrs by scintillation spectroscopy.
For assay [7], the system named is HUVEC. The assay can be described thus: Antivascular activity in HUVEC cells assessed as change in cell shape at 1 uM after 1 hr by fluorescent-labeled high molecular weight F-dextran permeability assay. Particulars: Homo sapiens. The assay is classed as functional, cell-based.
In assay [8] the test system is Vero. The assay can be described thus: Binding affinity to tubulin in african green monkey Vero cells assessed as aberration of microtubule arrangement at 10 uM after 40 mins by immunohistochemistry. The assay is classed as cell-based. The conditions noted are these: Chlorocebus sabaeus.
Assay [9] is described as follows: Inhibition of tubulin polymerization assessed as appearance of twisted and shorter tubulin by electron microscopy.
The nature of assay [10]: Inhibition of tubulin polymerization assessed as appearance of shorter and ring shaped tubulin by electron microscopy.

In the case of `COc1cc(C(=O)/C(C)=C/c2cc(F)c(OC)c(F)c2)cc(OC)c1OC`, the IC50 in [1] (Homo sapiens, K562, 120 h) is 50 nM; in assay [5], 2400 nM. Moreover, the Activity in assay [2] amounted to 4%; in assay [3], 24%; in assay [4] it was 72%; in assay [6], 25%.

As for `COc1cc(OC)c(C(=O)/C=C/c2ccc(OC)c(OC)c2OC)c(OC)c1`, the half-inhibitory concentration (IC50) came out at 300 nM in [1] (Homo sapiens, K562, 120 h) and 15000 nM in assay [5]. For the same compound, the Activity in assay [2] was determined as 10%; in assay [3] it was 16%; in assay [4], 74%; in assay [6], 27%.

In the case of `COc1ccc(C(=O)/C=C/c2ccc(OC)c(OP(=O)(O)O)c2)cc1`, the Activity in assay [6] was determined as 83%. In addition, in [7], the outcome was Active.

Regarding `COc1ccc(C(=O)/C(C)=C/c2ccc(OC)c(OP(=O)(O)O)c2)cc1`, in assay [6], the Activity was 12%. The result in assay [7] was Active.

Regarding `COc1ccc(/C=C\c2cc(OC)c(OC)c(OC)c2)cc1O` [COMBRETASTATIN A4], the Activity turned out to be 2% in [2], 8% in [3], 90% in assay [4] and 8% in [6]. The compound further came in with an IC50 in [5] of 100 nM.

As for `COc1ccc(/C=C/C(=O)c2ccc(OC)c(OC)c2)c(OC)c1`, the concentration for half-maximal inhibition (IC50) in [1] (Homo sapiens, K562, 120 h) came out at 300 nM; in [5], 18000 nM. Moreover, the Activity in assay [2] is 26%; in assay [3] it was 27%; in assay [4] it was 47%; in assay [6] it was 42%. The outcome in assay [8] was Active.

Regarding `COc1ccc(/C=C/C(=O)c2cc(OC)c(OC)c(OC)c2)cc1O`, the Activity in assay [2] was determined as 12%; in assay [3], 12%; in assay [4], 76%; in assay [6] it was 9%. The IC50 in assay [5] was determined as 620 nM. Besides, the result in assay [9] and in [7] was Active.

As to `CO/C(=C\c1ccc(OC)c(O)c1)C(=O)c1cc(OC)c(OC)c(OC)c1`, the half-maximal inhibitory concentration (IC50) in assay [1] (Homo sapiens, K562, 120 h) turned out to be 1.5 nM; in assay [5], 510 nM. For the same compound, the Activity in [2] was determined as 4%; in assay [3] it was 12%; in assay [4], 84%; in assay [6], 5%. For the same compound, the result in assay [8] and in assay [7] was Active.

On to `COc1ccc(/C=C(\C)C(=O)c2cc(OC)c(OC)c(OC)c2)cc1F`, for which the IC50 in [1] (Homo sapiens, K562, 120 h) came out at 2 nM; in assay [5], 650 nM. The Activity worked out at 3% in assay [2], 9% in assay [3], 88% in [4] and 6% in [6]. For the same compound, the result in assay [8] was Active.

Take `COc1cc(OC)c(/C=C/C(=O)c2cc(OC)c(OC)c(OC)c2)c(OC)c1`: the IC50 in assay [1] (Homo sapiens, K562, 120 h) worked out at 200 nM; in assay [5], 12000 nM. Besides, the Activity in assay [2] was found to be 10%; in assay [3], 18%; in [4], 72%; in [6], 46%. Moreover, the outcome in [8] was Active.

As to `COc1ccc(OC)c(C(=O)/C(C)=C/c2ccc(N(C)C)cc2)c1`, the IC50 in assay [1] (Homo sapiens, K562, 120 h) worked out at 12 nM; in assay [5] it was 10000 nM. The Activity in assay [2] is 10%; in [3], 8%; in assay [4], 82%; in assay [6], 2%. Moreover, the result in assay [8] was Active.

Turning to `CN(Cc1cnc2nc(N)nc(N)c2n1)c1ccc(C(=O)N[C@@H](CCC(=O)O)C(=O)O)cc1`, in [7], the result was inactive.

`COc1ccc(/C=C\c2cc(OC)c(OC)c(OC)c2)cc1OP(=O)(O)O`: the result in assay [7] was Active.

For `COc1ccc(/C=C/C(=O)c2cc(OC)c(OC)c(OC)c2)cc1OC`, the half-inhibitory concentration (IC50) in assay [1] (Homo sapiens, K562, 120 h) is 300 nM; in assay [5] it was over 25000 nM. Also, the Activity was 31% in [2], 25% in assay [3], 44% in [4] and 62% in assay [6].

For the compound `CO/C(=C\c1ccc(OC)c(F)c1)C(=O)c1cc(OC)c(OC)c(OC)c1`, the IC50 in [1] (Homo sapiens, K562, 120 h) stood at 3.7 nM; in assay [5] it was 470 nM. The Activity in assay [2] was 41%; in [3], 13%; in [4], 46%; in assay [6], 8%. Also, the result in assay [7] was Active.

Turning to `CO/C(=C\c1cc(F)c(OC)c(F)c1)C(=O)c1cc(OC)c(OC)c(OC)c1`, the IC50 in assay [1] (Homo sapiens, K562, 120 h) is 360 nM; in assay [5] it was 1700 nM. For the same compound, the Activity in [2] is 30%; in assay [3], 15%; in [4], 55%; in [6], 41%. For the same compound, the result in [7] was Active.

Consider `COc1ccc(C(=O)/C=C/c2ccc(OC)c(OP(=O)([O-])[O-])c2)cc1.[Na+].[Na+]`, for which the IC50 was 8 nM in assay [1] (k562) and 39000 nM in [5]. Also, the Activity in assay [2] stood at 22%; in [3], 14%; in [4] it was 64%.

For the compound `COc1cc(C(=O)/C=C/c2ccc3c(c2)OCCO3)cc(OC)c1OC`, the Activity in assay [2] was determined as 27%; in [3], 23%; in assay [4], 50%; in [6], 10%. The compound further had an IC50 in assay [5] of 13000 nM. The result in assay [8] was Active.

For `COc1ccc(/C=C(\C)C(=O)c2cc(OC)c(OC)c(OC)c2)cc1O`, the Activity amounted to 10% in assay [2], 7% in assay [3], 83% in [4] and 8% in assay [6]. This compound also came in with an IC50 in assay [5] of 460 nM. The result in assay [8], in [10] and in [7] was Active.
